Legend:
wild oat = experiment: Test B postemergence herbicide test; type: in vivo, Avena fatua; conditions: scale 0 (no effect) to 100 (complete control)
Method in brief: (§1)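 Treated at 2-leaf (paddy) or 1–4-leaf, 2–18 cm (postemergence); greenhouse 13–15 d; visual score vs control, 0 none to 100 complete control; dash = not tested.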

rice [1] = experiment: Test C flooded paddy test; type: in vivo, Oryza sativa
Method in brief: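 Plants were grown to the 1- to 4-leaf stage (2–18 cm) and then treated postemergence, or grown to the 2-leaf stage for the flooded paddy test. They were held in a greenhouse for 12 to 14 days and then scored by eye against controls, where 0 is no effect and 100 is complete control.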

barnyardgrass [2] = experiment: Test B pre-/postemergence herbicide test; type: in vivo, Echinochloa crus-galli; conditions: for Barnyardgrass plant response rating: scale 0 (no effect) to 100 (complete control)
Method in brief: (§2)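 Species tested were Echinochloa crus-galli, Ipomoea coccinea, Xanthium strumarium and Oryza sativa, treated both before emergence and at the 1- to 4-leaf stage; rice and barnyardgrass were also tested under flooding at 2 leaves. Greenhouse incubation lasted 13–15 days before visual 0–100 scoring.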

corn = experiment: Test B pre-/postemergence herbicide test; type: in vivo, Zea mays; conditions: for Corn plant response rating: scale 0 (no effect) to 100 (complete control)
Method in brief: (§3)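 Evaluation is visual, comparing treated with control plants on a scale where 0 means no effect and 100 means full control. Treatments were preemergence, or postemergence on seedlings 2–18 cm tall, and held 13–15 days in the greenhouse.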

barnyardgrass [3] = experiment: Test B flooded paddy test; type: in vivo, Echinochloa crus-galli; conditions: 1000 g ai/ha, scale 0 to 100 (0 no effect, 100 complete control)
Method in brief: (§4)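 Plants grow to 1- to 4-leaf stage (2–18 cm) for postemergence spraying, or to 2-leaf stage for the paddy test. Formulated compound is applied. Greenhouse holding lasts 13–15 days. Response is scored visually relative to controls, 0 no effect to 100 complete control; a dash means no result.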

cocklebur = experiment: Test B pre-/postemergence herbicide test; type: in vivo, Xanthium strumarium; conditions: for Cocklebur plant response rating: scale 0 (no effect) to 100 (complete control)
Method in brief: as §2

giant foxtail = experiment: Test B pre-/postemergence herbicide test; type: in vivo, Setaria faberi; conditions: for Foxtail, Giant plant response rating: scale 0 (no effect) to 100 (complete control)
Method in brief: as §3

blackgrass = experiment: Test B postemergence herbicide test; type: in vivo, Alopecurus myosuroides; conditions: scale 0 (no effect) to 100 (complete control)
Method in brief: as §4

morningglory = experiment: Test B pre-/postemergence herbicide test; type: in vivo, Ipomoea coccinea; conditions: for Morningglory plant response rating: scale 0 (no effect) to 100 (complete control)
Method in brief: as §2

lambsquarters = experiment: Test B pre-/postemergence herbicide test; type: in vivo, Chenopodium album; conditions: for Lambsquarters plant response rating: scale 0 (no effect) to 100 (complete control)
Method in brief: as §3

Surinam grass = experiment: Test B pre-/postemergence herbicide test; type: in vivo, Urochloa decumbens; conditions: for Surinam Grass plant response rating: scale 0 (no effect) to 100 (complete control)
Method in brief: as §3

barnyardgrass [4] = experiment: Test C flooded paddy test; type: in vivo, Echinochloa crus-galli
Method in brief: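 After a postemergence application at 1 to 4 leaves (plants 2–18 cm high), or at 2 leaves for barnyardgrass in flooded paddy, plants stayed in the greenhouse for 12 to 14 days. Damage was then judged visually relative to control plants, with 100 indicating complete control.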

[5] = tested on: small flower umbrella sedge; experiment: Test B flooded paddy test; type: in vivo, Cyperus difformis; conditions: 1000 g ai/ha, scale 0 to 100 (0 no effect, 100 complete control)
Method in brief: as §4

pigweed = experiment: Test B pre-/postemergence herbicide test; type: in vivo, Amaranthus retroflexus; conditions: for Pigweed plant response rating: scale 0 (no effect) to 100 (complete control)
Method in brief: as §3

large crabgrass = experiment: Test B pre-/postemergence herbicide test; type: in vivo, Digitaria sanguinalis; conditions: for Crabgrass, Large plant response rating: scale 0 (no effect) to 100 (complete control)
Method in brief: as §3

velvetleaf = experiment: Test B pre-/postemergence herbicide test; type: in vivo, Abutilon theophrasti; conditions: for Velvetleaf plant response rating: scale 0 (no effect) to 100 (complete control)
Method in brief: as §3

ducksalad [6] = experiment: Test B flooded paddy test; type: in vivo, Heteranthera limosa; conditions: 1000 g ai/ha, scale 0 to 100 (0 no effect, 100 complete control)
Method in brief: as §4

[7] = tested on: smallflower umbrella sedge; experiment: Test C flooded paddy test; type: in vivo, Cyperus difformis
ducksalad [8] = experiment: Test C flooded paddy test; type: in vivo, Heteranthera limosa
rice [9] = experiment: Test B flooded paddy test; type: in vivo, Oryza sativa; conditions: 1000 g ai/ha, scale 0 to 100 (0 no effect, 100 complete control)
Method in brief: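 Each value is a visual 0–100 response rating taken against controls 13 to 15 days after treatment in the greenhouse. Plants received formulated chemical postemergence at the 1- to 4-leaf stage or, in flooded paddy, at the 2-leaf stage.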

wheat = experiment: Test B postemergence herbicide test; type: in vivo, Triticum aestivum; parameters: key to Wheat plant response rating: 0 = no effect, 100 = complete control
Method in brief: as §1

[10] = 125 g ai/ha, visual rating, postemergence
[11] = 125 g ai/ha, scale 0 to 100 (0 no effect, 100 complete control)
[12] = 250 g ai/ha, scale of 0 to 100, 0 is no effect, 100 is complete control
[13] = 500 g ai/ha, visual rating after 12 to 14 days, scale 0 to 100 (0 no effect, 100 complete control)
[14] = 125 g ai/ha, 0 is no effect, 100 is complete control, preemergence

SMILES: CCNC(=O)c1cccc(NC(=O)c2nn(C(C)C)nc2C)c1 [Compound 405]
- Oat, Wild plant response rating (wild oat; [10]): 0
- Oat, Wild plant response rating (wild oat; Postemergence, 500 g ai/ha): 10
- Rice plant response rating (rice [1]; 62 g ai/ha, scale 0 to 100): 0
- Rice plant response rating (rice [1]; [11]): 0
- Rice plant response rating (rice [1]; [12]): 0
- Plant response rating, Rice (rice [1]; [13]): 20
- Plant response rating (0 to 100 scale), Barnyardgrass (barnyardgrass [2]; [14]): 10
- Barnyardgrass plant response rating (barnyardgrass [2]; [10]): 10
- Barnyardgrass plant response rating (barnyardgrass [2]; Postemergence, 500 g ai/ha): 10
- Plant response rating (0 to 100 scale), Corn (corn; [14]): 0
- Corn plant response rating (corn; [10]): 10
- Corn plant response rating (corn; Postemergence, 500 g ai/ha): 10
- Barnyardgrass plant response rating (barnyardgrass [3]): 40
- Plant response rating (0 to 100 scale), Cocklebur (cocklebur; [14]): 0
- Cocklebur plant response rating (cocklebur; [10]): 10
- Cocklebur plant response rating (cocklebur; Postemergence, 500 g ai/ha): 20
- Plant response rating (0 to 100 scale), Foxtail, Giant (giant foxtail; [14]): 0
- Foxtail, Giant plant response rating (giant foxtail; [10]): 0
- Foxtail, Giant plant response rating (giant foxtail; Postemergence, 500 g ai/ha): 20
- Blackgrass plant response rating (blackgrass; [10]): 0
- Blackgrass plant response rating (blackgrass; Postemergence, 500 g ai/ha): 10
- Plant response rating (0 to 100 scale), Morningglory (morningglory; [14]): 30
- Morningglory plant response rating (morningglory; [10]): 20
- Morningglory plant response rating (morningglory; Postemergence, 500 g ai/ha): 60
- Plant response rating (0 to 100 scale), Lambsquarters (lambsquarters; [14]): 70
- Lambsquarters plant response rating (lambsquarters; [10]): 50
- Lambsquarters plant response rating (lambsquarters; Postemergence, 500 g ai/ha): 70
- Plant response rating (0 to 100 scale), Surinam Grass (Surinam grass; [14]): 0
- Surinam Grass plant response rating (Surinam grass; [10]): 0
- Surinam Grass plant response rating (Surinam grass; Postemergence, 500 g ai/ha): 10
- Barnyardgrass plant response rating (barnyardgrass [4]; 62 g ai/ha, scale 0 to 100 (0 no effect, 100 complete control)): 0
- Barnyardgrass plant response rating (barnyardgrass [4]; [11]): 0
- Barnyardgrass plant response rating (barnyardgrass [4]; [12]): 0
- Plant response rating, Barnyardgrass (barnyardgrass [4]; [13]): 20
- Sedge, Umbrella plant response rating [5]: 90
- Plant response rating (0 to 100 scale), Pigweed (pigweed; [14]): 10
- Pigweed plant response rating (pigweed; [10]): 30
- Pigweed plant response rating (pigweed; Postemergence, 500 g ai/ha): 50
- Plant response rating (0 to 100 scale), Crabgrass, Large (large crabgrass; [14]): 30
- Crabgrass, Large plant response rating (large crabgrass; [10]): 10
- Crabgrass, Large plant response rating (large crabgrass; Postemergence, 500 g ai/ha): 20
- Plant response rating (0 to 100 scale), Velvetleaf (velvetleaf; [14]): 0
- Velvetleaf plant response rating (velvetleaf; [10]): 10
- Velvetleaf plant response rating (velvetleaf; Postemergence, 500 g ai/ha): 30
- Ducksalad plant response rating (ducksalad [6]): 80
- Sedge, Umbrella plant response rating ([7]; 62 g ai/ha, scale 0 to 100): 40
- Sedge, Umbrella plant response rating [7, 11]: 50
- Sedge, Umbrella plant response rating [7, 12]: 70
- Plant response rating, Sedge, Umbrella [7, 13]: 70
- Ducksalad plant response rating (ducksalad [8]; 62 g ai/ha, scale 0 to 100): 0
- Ducksalad plant response rating (ducksalad [8]; [11]): 0
- Ducksalad plant response rating (ducksalad [8]; [12]): 20
- Plant response rating, Ducksalad (ducksalad [8]; [13]): 30
- Rice plant response rating (rice [9]): 50
- Wheat plant response rating (wheat; 125 g ai/ha, visual rating, scale 0 (no effect) to 100 (complete control), postemergence): 0
- Wheat plant response rating (wheat; 500 g ai/ha, scale 0 to 100, 0 no effect, 100 complete control, preemergence): 20
- Wheat plant response rating (wheat; Postemergence, 500 g ai/ha, scale 0 (no effect) to 100 (complete control)): 0

Reference: patent US20060069132A1, “Azolecarboxamide herbicides” (priority 2004, published 2006)
